Measured values taken from PubChem BioAssay (NCI).
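Each compound was tested at five concentrations against cells in 96-well plates for 48 hours. Here, GI50 denotes the concentration required for 50% inhibition of growth. TGI is the concentration that stops growth completely.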

How the values were obtained:
Assay in all cases: NCI tumour cell line growth inhibition, 48 h
RXF 393 renal = system: RXF 393 renal
SR leukemia = system: SR leukemia
HOP-92 NSCLC = system: HOP-92 NSCLC
SK-MEL-28 melanoma = system: SK-MEL-28 melanoma
MOLT-4 leukemia = system: MOLT-4 leukemia
786-0 renal = system: 786-0 renal
HOP-62 NSCLC = system: HOP-62 NSCLC
HCC-2998 colon = system: HCC-2998 colon
RPMI-8226 leukemia = system: RPMI-8226 leukemia
MDA-N = system: MDA-N
HL-60(TB) leukemia = system: HL-60(TB) leukemia
NCI-H460 lung = system: NCI-H460 lung
A498 renal = system: A498 renal

SMILES	TGI (RXF 393 renal) [µM]	TGI (SR leukemia) [µM]	TGI (HOP-92 NSCLC) [µM]	TGI (SK-MEL-28 melanoma) [µM]	TGI (MOLT-4 leukemia) [µM]	TGI (786-0 renal) [µM]	TGI (HOP-62 NSCLC) [µM]	TGI (HCC-2998 colon) [µM]	TGI (RPMI-8226 leukemia) [µM]	TGI (MDA-N) [µM]	TGI (HL-60(TB) leukemia) [µM]	TGI (NCI-H460 lung) [µM]	TGI (A498 renal) [µM]	GI50 (RXF 393 renal) [µM]	GI50 (HL-60(TB) leukemia) [µM]
c1ccc2cc3c(cc2c1)nc1ccccn13	> 100	> 100	> 100	> 100	> 100	> 100	> 100	> 100	> 100	> 100	> 100	–	–	–	–
CC(C)C(NCc1c(O)ccc2c(-c3ccccc3)cc(=O)oc12)C(=O)O (configuration not stated)	> 100	> 100	> 100	> 100	> 100	> 100	> 100	> 100	> 100	> 100	> 100	> 100	–	–	–
CCc1n[nH]c(=O)n1CCO	–	–	> 100	> 100	> 100	> 100	–	> 100	> 100	> 100	> 100	> 100	> 100	–	–
COc1ccc(CCNC(=O)[C@H]2CCCC[C@@H]2CCO)cc1OC	> 100	> 100	> 100	> 100	> 100	> 100	> 100	> 100	> 100	–	> 100	> 100	> 100	–	–
O=c1oc2ccc([N+](=O)[O-])cc2c(Nc2ccc3c(c2)S(=O)(=O)c2ccccc2O3)c1[N+](=O)[O-]	> 100	> 100	> 100	> 100	> 100	> 100	> 100	> 100	> 100	> 100	> 100	> 100	–	–	–
N#Cc1nc(COCCOCc2ccc(F)cc2)oc1N	> 100	> 100	–	> 100	> 100	> 100	> 100	> 100	> 100	–	> 100	> 100	> 100	–	–
Cc1nc2c(=O)n3c4c(cccc4c2o1)CCC3	> 100	–	> 100	> 100	> 100	> 100	> 100	> 100	> 100	> 100	> 100	> 100	> 100	–	–
O=c1ccn(C2OC(CN(O)CCC3C(CO)OC(n4ccc(=O)[nH]c4=O)C3O)C(O)C2O)c(=O)[nH]1 (configuration not stated)	> 100	–	> 100	> 100	> 100	> 100	> 100	> 100	> 100	> 100	> 100	> 100	> 100	–	–
N#Cc1sc2c(c1O)c(=O)n(-c1ccccc1)c(=S)n2-c1ccccc1	> 100	> 100	> 100	> 100	–	> 100	–	> 100	> 100	> 100	> 100	> 100	–	–	–
COc1ccc2c(c1)CCC(OS(=O)(=O)CC13CCC(CC1=O)C3(C)C)C2=O (configuration not stated)	–	73.3	93.2	> 100	55.9	40.4	70.8	50.9	57.2	–	47.5	38.6	39.1	–	–
CC(CCCOC(c1ccccc1)(c1ccccc1)c1ccccc1)OC(=O)Nc1ccccc1 (configuration not stated)	26.5	44.7	21.7	28.7	24	29.9	28.1	27.3	42.1	–	31.4	24.8	–	–	–
CCCC[C@H]1CCN2C[C@@H](O)[C@@H](O)[C@H]2[C@@H]1O	–	–	> 100	> 100	> 100	> 100	–	> 100	> 100	> 100	> 100	> 100	> 100	–	–
CC(=O)C1=CCC2c3[nH]c4ccccc4c3CCN2C1 (configuration not stated)	> 100	> 100	> 100	> 100	> 100	> 100	> 100	> 100	–	–	> 100	> 100	> 100	–	–
CCN(CC)CCO/N=C1/C=C2CCC3C(CC[C@@]4(C)C3CC[C@]4(C)O)[C@@]2(C)CC1 (some centres not stated)	72.2	–	21	–	10.2	12.7	21	19	15.2	5.72	–	15.3	0.878	–	–
CCCCNC(=S)/N=C/c1c(O)c2ccccc2[nH]c1=O	> 10	> 10	> 10	> 10	> 10	> 10	> 10	> 10	> 10	–	> 10	> 10	> 10	–	–
COc1ccc(NC2CC(C)N(C(=O)c3ccccc3)O2)cc1 (configuration not stated)	> 10	> 10	–	> 10	> 10	> 10	> 10	> 10	> 10	> 10	> 10	> 10	–	–	–
Cc1cc2c(cc1Cl)SC(NNc1ccc([N+](=O)[O-])cc1)=NS2(=O)=O	> 10	–	–	> 10	> 10	> 10	> 10	> 10	> 10	> 10	> 10	> 10	> 10	–	–
Cc1ccc(S(=O)(=O)c2c(N)n(CCN(C)C)c3nc4ccccc4nc23)cc1	–	–	> 100	> 100	> 100	> 100	–	> 100	> 100	–	> 100	> 100	–	–	–
OC(C/C=N/Nc1ccccc1)(C(F)(F)Cl)C(F)(F)Cl	> 10	–	> 10	> 10	–	> 10	> 10	> 10	–	> 10	> 10	> 10	> 10	–	–
O=C1Oc2cc3c(c4cccc1c24)O[C@H](c1ccccc1)[C@@H](c1ccccc1)[C@@H]3c1ccc(Cl)cc1	40.1	87.2	67.9	> 100	64.3	> 100	42.8	> 100	> 100	> 100	> 100	> 100	–	–	–

SMILES	TGI (RXF 393 renal) [µM]	TGI (SR leukemia) [µM]	TGI (HOP-92 NSCLC) [µM]	TGI (SK-MEL-28 melanoma) [µM]	TGI (MOLT-4 leukemia) [µM]	TGI (786-0 renal) [µM]	TGI (HOP-62 NSCLC) [µM]	TGI (HCC-2998 colon) [µM]	TGI (RPMI-8226 leukemia) [µM]	TGI (MDA-N) [µM]	TGI (HL-60(TB) leukemia) [µM]	TGI (NCI-H460 lung) [µM]	TGI (A498 renal) [µM]	GI50 (RXF 393 renal) [µM]	GI50 (HL-60(TB) leukemia) [µM]
CC(C)(C)S(=O)OC12CC3CC(CC(C3)C1)C2 (configuration not stated)	> 100	> 100	–	> 100	> 100	> 100	> 100	–	> 100	–	–	> 100	–	–	–
O=C(CC1C(=O)c2ccccc2C1=C1C(=O)c2ccccc2C1=O)c1ccccc1 (configuration not stated)	> 100	–	> 100	> 100	> 100	> 100	> 100	> 100	> 100	–	> 100	> 100	> 100	–	–
Cc1cc(N(CCC#N)CCC#N)ccc1C=Nc1ccc(C(=O)NN2C(=O)/C(=C/c3ccc(N(CCC#N)CCC#N)cc3)N=C2c2cc([N+](=O)[O-])ccc2Cl)cc1	> 100	–	> 100	> 100	–	> 100	> 100	> 100	> 100	–	> 100	> 100	> 100	–	–
FC1=C2CCCCCC2SC1(F)F (configuration not stated)	33.2	53.6	70.2	> 100	44.1	> 100	–	> 100	84.9	> 100	33.9	–	–	–	–
Cn1c2ccccc2c(=O)c2[nH]c3ccccc3c21	> 100	–	> 100	59.5	75.9	> 100	> 100	> 100	> 100	> 100	–	> 100	> 100	–	–
CC1(C)O[C@@H](CBr)C[C@H](C[C@H]2C[C@@H](O)C[C@@H](CCOCc3ccccc3)O2)O1	–	> 100	77.5	69.2	> 100	39.8	42.8	53.7	97	–	–	87.1	48.6	–	–
Cc1ncc([N+](=O)[O-])n1CCNC(=O)Cn1c([N+](=O)[O-])cnc1C	–	> 100	–	> 100	> 100	> 100	> 100	> 100	–	> 100	> 100	> 100	> 100	–	–
CN(C)Cc1cc(C(C)(C)C)cc(C2CCCCC2)c1O	26.4	25.6	–	26.3	22.6	41.5	40	–	–	–	33.9	38.3	–	–	–
N#Cc1c(N2CCOCC2)[nH]c(=O)c(C(c2c(Cl)cccc2Cl)c2c(O)c(C#N)c(N3CCOCC3)[nH]c2=O)c1O	35.5	26.3	37.8	32.9	36.2	> 100	79.3	27.5	60.8	–	29.3	> 100	> 100	–	–
NCc1cc(O)c(O)c(O)c1	> 100	> 100	> 100	> 100	> 100	> 100	> 100	–	> 100	–	> 100	> 100	> 100	–	–
c1ccc(CC2(c3cc4ccccc4[nH]3)OCCO2)nc1	> 100	–	> 100	> 100	> 100	> 100	> 100	–	> 100	> 100	> 100	> 100	> 100	–	–
Cc1ccc(NC(=O)C(=O)Cc2cc[n+]([O-])cc2)cc1	> 100	> 100	> 100	> 100	> 100	> 100	> 100	> 100	> 100	–	> 100	> 100	> 100	–	–
CC(=O)c1cc(C)n2c1CS[C@@H]2c1ccccc1	91.6	> 100	> 100	> 100	96.5	50.5	> 100	–	44	–	> 100	–	> 100	–	–
C=CCN1CN(c2ccccc2)C2(CCN(CCCC3(c4ccc(F)cc4)OCCO3)CC2)C1=O	28.1	48.7	–	30.8	39.6	33.6	36	35.6	34.2	–	29	–	–	–	–
Cc1ccc2c(=O)cc(-c3sc4ccccc4c3C)[nH]c2n1	53.1	–	30.6	71.4	69.7	46.8	75.4	–	38.1	45	42.9	–	> 100	16.8	18.5
O=C(CSC1=NNC2(C(=O)N1)c1ccccc1-c1ccccc12)NC(=S)Nc1ccccc1	> 10	> 10	> 10	> 10	> 10	> 10	> 10	> 10	> 10	> 10	> 10	> 10	–	–	–
O=C1c2ccccc2-c2c1c(-c1cccc(Br)c1)nc1ccc3ccccc3c21	> 100	–	–	> 100	> 100	> 100	> 100	> 100	> 100	> 100	–	> 100	> 100	–	–
CC(C)(C)OC(=O)N(CCCCNCc1ccc2ccccc2c1)CCCNCc1ccc2ccccc2c1	–	–	3.18	3.39	2.28	2.8	3.87	0.549	–	–	0.507	2.18	3.47	–	–
CCC1CN2CCC3(c4ccccc4)CC(C(=O)OC)=CC1C23 (configuration not stated)	33.6	> 100	25.9	31.5	> 100	31.9	38.4	30.7	> 100	–	–	32.5	33.9	–	–
COc1ccc(N=[N+]([O-])c2ccc(OC)cc2)cc1	> 100	–	> 100	> 100	> 100	> 100	> 100	> 100	> 100	> 100	–	> 100	> 100	–	–
